Reference: ChEMBL document CHEMBL3784933, “Synthesis and antitumor evaluation of trimethoxyanilides based on 4(3H)-quinazolinone scaffolds” (2016)

Legend:
Format in all cases: functional
[1] = Cytotoxicity against human HCT116 cells assessed as growth inhibition at 10 uM after 48 hrs by SRB assay; settings: HCT-116, 48 h, read-out: GI
[2] = Cytotoxicity against human BT549 cells assessed as growth inhibition at 10 uM after 48 hrs by SRB assay; settings: BT-549, 48 h, read-out: GI
[3] = Cytotoxicity against human LOXIMVI cells assessed as growth inhibition at 10 uM after 48 hrs by SRB assay; settings: LOX IMVI, read-out: GI
[4] = Cytotoxicity against human HOP92 cells assessed as growth inhibition at 10 uM after 48 hrs by SRB assay; settings: HOP-92, 48 h, read-out: GI
[5] = tested on: 786-0; test: Cytotoxicity against human 786-0 cells assessed as growth inhibition at 10 uM after 48 hrs by SRB assay; settings: 786-0, 48 h, read-out: GI
[6] = Cytotoxicity against human SF295 cells assessed as growth inhibition at 10 uM after 48 hrs by SRB assay; settings: SF-295, 48 h, read-out: GI
[7] = Cytotoxicity against human RXF393 cells assessed as growth inhibition at 10 uM after 48 hrs by SRB assay; settings: RXF 393, 48 h, read-out: GI
[8] = Cytotoxicity against human UACC62 cells assessed as growth inhibition at 10 uM after 48 hrs by SRB assay; settings: UACC-62, 48 h, read-out: GI
[9] = Cytotoxicity against human RPMI8226 cells assessed as growth inhibition at 10 uM after 48 hrs by SRB assay; settings: RPMI-8226, 48 h, read-out: GI
[10] = tested on: U-251; test: Cytotoxicity against human U251 cells assessed as growth inhibition at 10 uM after 48 hrs by SRB assay; settings: U-251, 48 h, read-out: GI
[11] = Cytotoxicity against human SW620 cells assessed as growth inhibition at 10 uM after 48 hrs by SRB assay; settings: SW-620, 48 h, read-out: GI
[12] = Cytotoxicity against human OVCAR5 cells assessed as growth inhibition at 10 uM after 48 hrs by SRB assay; settings: OVCAR-5, 48 h, read-out: GI
[13] = tested on: CCRF-CEM; test: Cytotoxicity against human CCRF-CEM cells assessed as growth inhibition at 10 uM after 48 hrs by SRB assay; settings: read-out: GI
[14] = Cytotoxicity against human Caki1 cells assessed as growth inhibition at 10 uM after 48 hrs by SRB assay; settings: CAKI-1, 48 h, read-out: GI
[15] = Cytotoxicity against human SNB19 cells assessed as growth inhibition at 10 uM after 48 hrs by SRB assay; settings: SNB-19, 48 h, read-out: GI
[16] = Cytotoxicity against human MOLT4 cells assessed as growth inhibition at 10 uM after 48 hrs by SRB assay; settings: MOLT-4, 48 h, read-out: GI
[17] = Cytotoxicity against human OVCAR8 cells assessed as growth inhibition at 10 uM after 48 hrs by SRB assay; settings: OVCAR-8, 48 h, read-out: GI
[18] = tested on: A498; test: Cytotoxicity against human A498 cells assessed as growth inhibition at 10 uM after 48 hrs by SRB assay; settings: A498, 48 h, read-out: GI
[19] = tested on: MDA-MB-231; test: Cytotoxicity against human MDA-MB-231 cells assessed as growth inhibition at 10 uM after 48 hrs by SRB assay; settings: MDA-MB-231, 48 h, read-out: GI
[20] = Cytotoxicity against human NCI-ADR-RES cells assessed as growth inhibition at 10 uM after 48 hrs by SRB assay; settings: read-out: GI
[21] = Cytotoxicity against human OVCAR4 cells assessed as growth inhibition at 10 uM after 48 hrs by SRB assay; settings: OVCAR-4, 48 h, read-out: GI
[22] = Cytotoxicity against human PC3 cells assessed as growth inhibition at 10 uM after 48 hrs by SRB assay; settings: PC-3, 48 h, read-out: GI
[23] = Cytotoxicity against human SF268 cells assessed as growth inhibition at 10 uM after 48 hrs by SRB assay; settings: SF-268, 48 h, read-out: GI
[24] = tested on: ACHN; test: Cytotoxicity against human ACHN cells assessed as growth inhibition at 10 uM after 48 hrs by SRB assay; settings: read-out: GI
[25] = tested on: SN12C; test: Cytotoxicity against human SN12C cells assessed as growth inhibition at 10 uM after 48 hrs by SRB assay; settings: read-out: GI
[26] = tested on: A549; test: Cytotoxicity against human A549 cells assessed as growth inhibition at 10 uM after 48 hrs by SRB assay; settings: A549, 48 h, read-out: GI
[27] = tested on: T47D; test: Cytotoxicity against human T47D cells assessed as growth inhibition at 10 uM after 48 hrs by SRB assay; settings: read-out: GI
[28] = Cytotoxicity against human SF539 cells assessed as growth inhibition at 10 uM after 48 hrs by SRB assay; settings: SF-539, 48 h, read-out: GI
[29] = Cytotoxicity against human UO31 cells assessed as growth inhibition at 10 uM after 48 hrs by SRB assay; settings: UO-31, 48 h, read-out: GI
[30] = tested on: K562; test: Cytotoxicity against human K562 cells assessed as growth inhibition at 10 uM after 48 hrs by SRB assay; settings: K562, 48 h, read-out: GI
[31] = tested on: NCI-H522; test: Cytotoxicity against human NCI-H522 cells assessed as growth inhibition at 10 uM after 48 hrs by SRB assay; settings: NCI-H522, 48 h, read-out: GI
[32] = tested on: Malme-3M; test: Cytotoxicity against human MALME-3M cells assessed as growth inhibition at 10 uM after 48 hrs by SRB assay; settings: read-out: GI
[33] = Cytotoxicity against human Hs 578T cells assessed as growth inhibition at 10 uM after 48 hrs by SRB assay; settings: read-out: GI
[34] = tested on: NCI-H322M; test: Cytotoxicity against human NCI-H322M cells assessed as growth inhibition at 10 uM after 48 hrs by SRB assay; settings: read-out: GI
[35] = Cytotoxicity against human SNB75 cells assessed as growth inhibition at 10 uM after 48 hrs by SRB assay; settings: SNB-75, 48 h, read-out: GI
[36] = tested on: SR; test: Cytotoxicity against human SR cells assessed as growth inhibition at 10 uM after 48 hrs by SRB assay; settings: read-out: GI
[37] = tested on: NCI-H226; test: Cytotoxicity against human NCI-H226 cells assessed as growth inhibition at 10 uM after 48 hrs by SRB assay; settings: NCI-H226, 48 h, read-out: GI
[38] = Cytotoxicity against human UACC257 cells assessed as growth inhibition at 10 uM after 48 hrs by SRB assay; settings: UACC-257, 48 h, read-out: GI
[39] = tested on: MDA-MB-468; test: Cytotoxicity against human MDA-MB-468 cells assessed as growth inhibition at 10 uM after 48 hrs by SRB assay; settings: MDA-MB-468, 48 h, read-out: GI
[40] = Cytotoxicity against human IGROV1 cells assessed as growth inhibition at 10 uM after 48 hrs by SRB assay; settings: IGROV-1, 48 h, read-out: GI
[41] = tested on: NCI-H23; test: Cytotoxicity against human NCI-H23 cells assessed as growth inhibition at 10 uM after 48 hrs by SRB assay; settings: NCI-H23, 48 h, read-out: GI
[42] = Cytotoxicity against human DU145 cells assessed as growth inhibition at 10 uM after 48 hrs by SRB assay; settings: DU-145, 48 h, read-out: GI
[43] = tested on: NCI-H460; test: Cytotoxicity against human NCI-H460 cells assessed as growth inhibition at 10 uM after 48 hrs by SRB assay; settings: NCI-H460, 48 h, read-out: GI
[44] = Cytotoxicity against human HOP62 cells assessed as growth inhibition at 10 uM after 48 hrs by SRB assay; settings: HOP-62, 48 h, read-out: GI
[45] = tested on: MCF7; test: Cytotoxicity against human MCF7 cells assessed as growth inhibition at 10 uM after 48 hrs by SRB assay; settings: MCF7, 48 h, read-out: GI
[46] = Cytotoxicity against human NCI-H322 cells assessed as growth inhibition at 10 uM after 48 hrs by SRB assay; settings: NCI-H322, 48 h, read-out: GI
[47] = tested on: SK-MEL-5; test: Cytotoxicity against human SK-MEL-5 cells assessed as growth inhibition at 10 uM after 48 hrs by SRB assay; settings: SK-MEL-5, 48 h, read-out: GI
[48] = Cytotoxicity against human SKOV3 cells assessed as growth inhibition at 10 uM after 48 hrs by SRB assay; settings: SK-OV-3, 48 h, read-out: GI
[49] = Cytotoxicity against human OVCAR3 cells assessed as growth inhibition at 10 uM after 48 hrs by SRB assay; settings: OVCAR-3, 48 h, read-out: GI
[50] = tested on: SK-MEL-2; test: Cytotoxicity against human SK-MEL-2 cells assessed as growth inhibition at 10 uM after 48 hrs by SRB assay; settings: SK-MEL-2, 48 h, read-out: GI

With `COc1cc(NC(=O)CCSc2nc3ccc(C)cc3c(=O)n2-c2ccccc2)cc(OC)c1OC` the inhibition of growth at 10 µM [1] was 16%, the inhibition of growth at 10 µM [2] was 12% and the inhibition of growth at 10 µM [3] was 62%. It also gave an inhibition of growth at 10 µM [4] of 40%, an inhibition of growth at 10 µM [5] of 21% and an inhibition of growth at 10 µM [6] of 13%. The inhibition of growth at 10 µM [7] was 29%, the inhibition of growth at 10 µM [8] was 24% and the inhibition of growth at 10 µM [9] was 27%. It also gave an inhibition of growth at 10 µM [10] of 20%, an inhibition of growth at 10 µM [11] of 13% and an inhibition of growth at 10 µM [12] of 12%. The inhibition of growth at 10 µM [13] was 35%, the inhibition of growth at 10 µM [14] was 29% and the inhibition of growth at 10 µM [15] was 17%. It also gave an inhibition of growth at 10 µM [16] of 43%, an inhibition of growth at 10 µM [17] of 16% and an inhibition of growth at 10 µM [18] of 45%. The inhibition of growth at 10 µM [19] was 53%, the inhibition of growth at 10 µM [20] was 26% and the inhibition of growth at 10 µM [21] was 23%. The inhibition of growth at 10 µM [22] was 36%, the inhibition of growth at 10 µM [23] was 34% and the inhibition of growth at 10 µM [24] was 24%. For the same compound, the inhibition of growth at 10 µM [25] was 17%, the inhibition of growth at 10 µM [26] was 15% and the inhibition of growth at 10 µM [27] was 19%. The inhibition of growth at 10 µM [28] was 17%, the inhibition of growth at 10 µM [29] was 47% and the inhibition of growth at 10 µM [30] was 10%. The inhibition of growth at 10 µM [31] was 80%, the inhibition of growth at 10 µM [32] was 13% and the inhibition of growth at 10 µM [33] was 14%. It also gave an inhibition of growth at 10 µM [34] of 19% and an inhibition of growth at 10 µM [35] of 50%.
Work on `COc1cc(NC(=O)CCSc2nc3ccccc3c(=O)n2-c2ccc(F)cc2)cc(OC)c1OC` yielded an inhibition of growth at 10 µM [1] of 30%, an inhibition of growth at 10 µM [36] of 11% and an inhibition of growth at 10 µM [37] of 38%. For the same compound, the inhibition of growth at 10 µM [38] was 15%, the inhibition of growth at 10 µM [2] was 28% and the inhibition of growth at 10 µM [3] was 12%. It also gave an inhibition of growth at 10 µM [4] of 103%, an inhibition of growth at 10 µM [6] of 40% and an inhibition of growth at 10 µM [7] of 40%. The inhibition of growth at 10 µM [8] was 32%, the inhibition of growth at 10 µM [9] was 17% and the inhibition of growth at 10 µM [10] was 42%. For the same compound, the inhibition of growth at 10 µM [13] was 67%, the inhibition of growth at 10 µM [14] was 22% and the inhibition of growth at 10 µM [39] was 21%. The inhibition of growth at 10 µM [15] was 32%, the inhibition of growth at 10 µM [17] was 61% and the inhibition of growth at 10 µM [40] was 25%. The inhibition of growth at 10 µM [18] was 22%, the inhibition of growth at 10 µM [19] was 47% and the inhibition of growth at 10 µM [20] was 28%. It also gave an inhibition of growth at 10 µM [41] of 21%, an inhibition of growth at 10 µM [21] of 104% and an inhibition of growth at 10 µM [42] of 21%. The inhibition of growth at 10 µM [22] was 25%, the inhibition of growth at 10 µM [43] was 18% and the inhibition of growth at 10 µM [44] was 40%. The inhibition of growth at 10 µM [45] was 22%, the inhibition of growth at 10 µM [23] was 34% and the inhibition of growth at 10 µM [24] was 39%. The inhibition of growth at 10 µM [46] was 14%, the inhibition of growth at 10 µM [47] was 11% and the inhibition of growth at 10 µM [25] was 20%. For the same compound, the inhibition of growth at 10 µM [26] was 28%, the inhibition of growth at 10 µM [27] was 39% and the inhibition of growth at 10 µM [48] was 70%. The inhibition of growth at 10 µM [28] was 34%, the inhibition of growth at 10 µM [29] was 23% and the inhibition of growth at 10 µM [31] was 68%. The inhibition of growth at 10 µM [49] was 18%, the inhibition of growth at 10 µM [50] was 47% and the inhibition of growth at 10 µM [32] was 40%. For the same compound, the inhibition of growth at 10 µM [35] was 117%.
